{"source": "patent US6528511B2", "about": "“Partial fatty acid oxidation inhibitors in the treatment of congestive heart failure” (CV Therapeutics, Inc., priority 2000, dated 2003)", "key": {"[1]": {"test": "Solubility of ranolazine in aqueous solutions versus solution pH", "assay_type": "physicochemical"}, "[2]": {"test": "Ascending-dose SR bid study in healthy male volunteers, Day 5 pharmacokinetics of racemate and enantiomers", "assay_type": "in vivo, human", "settings": "for concentration at 96 h / concentration at 108 h: male, human, plasma, oral; for concentration at 96 h: read-out: C96h; for concentration at 108 h: read-out: C108h; for Differences in pharmacokinetic parameters between enantiomers: multiple dosing with SR formulation", "experimental": "This Example evaluated the safety and tolerability of administering racemic ranolazine free base formulations as in Example 3D. The individual and mean concentrations of racemic ranolazine and its enantiomers, (R)-(+)-N-(2,6-dimethylphenyl)-4-[2-hydroxy-3-(2 methoxyphenoxy)-propyl]-1-piperazineacetamide, (S)-(−)-N-(2,6-dimethylphenyl)-4-[2hydroxy-3-(2-methoxyphenoxy)-propyl]-1-piperazineacetamide in human plasma were also determined.\nThe study was performed with ascending doses of sustained release ranolazine dosage forms. Before and at intervals during and after the dosing period, blood samples were drawn for ranolazine assay and blood pressure, heart rate, ECG and symptoms were monitored throughout. Data summaries were reviewed after each phase before proceeding to the next phase of the study. Eight subjects, all healthy male volunteers aged between 18 and 40 entered and all completed the study and were available for pharmacokinetic and safety analysis. The subjects were each given doses of the various types of ranolazine free base in the form of sustained release tablets including 500 mg and 750 mg tablets or with matching placebo as necessary (2×750 mg size plus 1×500 mg size) to make unit oral doses of 1500 and 2000 mg.\nIn each phase: one dose bid for four days with a single dose on Day 5. On day 5 each volunteer underwent a full pharmacokinetic profile including supine and erect blood pressure (BP) and heart rate, ECG data, adverse events, clinical chemistry and hematology results, urinalysis results.\nThese tests were made using two-sided t-tests with estimates of variability from the ANOVA models. Steady state was also assessed by comparing means for C48 h, C72 h and C96 h using a mixed effects ANOVA model and untransformed and log, transformed data. For hemodynamic parameters, Day 1 pre-dose treatment means and Day 5 data were compared across treatments via two-sided t-tests using estimates of variability from mixed effects ANOVA models. Ninety and 95% confidence intervals were calculated for the treatment comparisons. No adjustments were made for multiple comparisons."}, "[3]": {"test_system": "Patients, with or without congestive heart failure, with reproducible angina-limited exercise duration", "test": "Exercise treadmill tolerance testing (ETT), modified Bruce protocol, crossover versus placebo", "assay_type": "in vivo, human", "settings": "500-1500 mg bid", "experimental": "Patients, with or without congestive heart failure were withdrawn from anti-anginal drugs with reproducible anginalimited exercise duration and >1 mm ST depression were randomized to Ran (500 mg bid, 1000 mg bit and 1500 mg bid) and matching placebo (Pbo) in a double-blind, four-period, Latin square crossover design. Exercise treadmill tolerance testing (ETT) was performed following a modified Bruce protocol, at trough (12 hr after dosing) and peak (4 hr after dosing) dosing times."}, "dogs with heart failure": {"test_system": "dogs with heart failure", "test": "Canine model of congestive heart failure (intracoronary microembolizations), hemodynamic and angiographic measurements", "assay_type": "in vivo, dog", "settings": "iv bolus 0.5 mg/kg then 1.0 mg/kg/hr for 40 min", "experimental": "The efficacy of ranolazine was studied using a canine model of congestive heart failure. Chronic LV dysfunction and failure was produced by multiple sequential intracoronary embolizations with polystyrene Latex microspheres (70-102 μm in diameter) which results in loss of viable myocardium. In the present study, 13 healthy mongrel dogs weighing between 23 and 25 kg underwent coronary microembolizations to produce heart failure. Intracoronary microembolizations were performed during cardiac catheterization under general anesthesia and sterile conditions. The anesthesia regimen consisted of intravenous oxymorphone hydrochloride (0.22 mg/kg), diazepam (0.17 mg/kg) and sodium pentobarbital (150-250 mg to effect). Dogs underwent an average of 5 microembolization procedures performed 1 to 3 weeks apart. Embolizations were discontinued when LV ejection fraction, determined angiographically, was <30%. Dogs were maintained for a period of 2-3 weeks to ensure that infarctions produced by the last microembolization were completely healed before studies were initiated. […] (The study was approved by the Henry Ford Health System Care of Experimental Animals Committee and conformed to the “Position of the American Heart Association on Research Animal Use,” adopted by the Association in November 1984, and to the Guiding Principles of the American Physiological Society on use of research animals). On the day of the study and following general anesthesia, aortic and LV pressure were measured with a catheter-tip micromanometer (Millar Instruments, Houston, Tex.) positioned through a femoral arteriotomy. Single-plane left ventriculograms were obtained during each catheterization after completion of the hemodynamic measurements with the dog placed on its right side. Ventriculograms were recorded on 35 mm cine film at 30 frames per second during the injection of 20 ml of contrast material (Reno-M-60, Squib, Princeton, N.J.). Correction for image magnification was made with a calibrated radiopaque grid placed at the level of the LV. Left ventricular end-systolic and end-diastolic volumes were calculated from ventricular silhouettes using the area-length method. The LV ejection fraction was calculated as the ratio of the difference of end-diastolic volume and end-systolic volume to end-diastolic volume times 100. Stroke volume was calculated as the difference between LV end-systolic and end-diastolic volumes obtained from the ventriculogram. Cardiac output was calculated as the product of stroke volume and heart rate. Extra systolic and post-extra systolic beats were excluded from all analyses. In each normal or heart failure dog, ranolazine dihydrochloride was administered in saline as an intravenous bolus injection of 0.5 mg/kg followed by a continuous intravenous infusion of 1.0 mg/kg/hr for 40 min. Arterial blood samples were drawn for determination of plasma ranolazine concentration. Samples were obtained at 5, 10, 20, 30, 35 and 40 min after initiation of treatment. Ranolazine was measured by high performance liquid chromatography (HPLC) using mass spectral detection. Following the withdrawal of the final blood sample at 40 min, hemodynamic and angiographic measurements were repeated. Each animal served as its own control. Pre-treatment values were compared to post-treatment values using a two-tailed paired Student's t-test with significance set at p<0.05. Data are presented as the mean±standard error of the mean."}, "[4]": {"test": "Arterial plasma ranolazine concentration in normal and heart failure dogs (HPLC-MS)", "assay_type": "in vivo, dog", "settings": "for Average ranolazine concentration during the final 10 minutes of treatment: dihydrochloride iv bolus 0.5 mg/kg then 1.0 mg/kg/hr for 40 min, mean±SEM", "experimental": "In each normal or heart failure dog, ranolazine dihydrochloride was administered in saline as an intravenous bolus injection of 0.5 mg/kg followed by a continuous intravenous infusion of 1.0 mg/kg/hr for 40 min. Arterial blood samples were drawn for determination of plasma ranolazine concentration. Samples were obtained at 5, 10, 20, 30, 35 and 40 min after initiation of treatment. Ranolazine was measured by high performance liquid chromatography (HPLC) using mass spectral detection. Following the withdrawal of the final blood sample at 40 min, hemodynamic and angiographic measurements were repeated."}}, "note": "Like-named read-outs stand apart in the source and are kept apart here."}
{"smiles": "COc1ccccc1OCC(O)CN1CCN(CC(=O)Nc2c(C)cccc2C)CC1", "note": "(racemic) [ranolazine, (±)-N-(2,6-dimethylphenyl)-4-[2-hydroxy-3-(2-methoxyphenoxy)-propyl]-1-piperazineacetamide]", "values": [{"measurement": "USP Solubility Class", "setting": "[1]; Solution pH 4.81", "value": "Freely Soluble"}, {"measurement": "USP Solubility Class", "setting": "[1]; Solution pH 4.89", "value": "Soluble"}, {"measurement": "USP Solubility Class", "setting": "[1]; Solution pH 4.90", "value": "Soluble"}, {"measurement": "USP Solubility Class", "setting": "[1]; Solution pH 5.04", "value": "Soluble"}, {"measurement": "USP Solubility Class", "setting": "[1]; Solution pH 5.35", "value": "Sparingly Soluble"}, {"measurement": "USP Solubility Class", "setting": "[1]; Solution pH 5.82", "value": "Slightly soluble"}, {"measurement": "USP Solubility Class", "setting": "[1]; Solution pH 6.46", "value": "Slightly soluble"}, {"measurement": "USP Solubility Class", "setting": "[1]; Solution pH 6.73", "value": "Very slightly soluble"}, {"measurement": "USP Solubility Class", "setting": "[1]; Solution pH 7.08", "value": "Very slightly soluble"}, {"measurement": "USP Solubility Class", "setting": "[1]; Solution pH 7.59 (unbuffered water)", "value": "Very slightly soluble"}, {"measurement": "USP Solubility Class", "setting": "[1]; Solution pH 7.79", "value": "Very slightly soluble"}, {"measurement": "USP Solubility Class", "setting": "[1]; Solution pH 12.66", "value": "Very slightly soluble"}, {"measurement": "Solubility in aqueous solutions", "setting": "[1]; pH above about 6.5", "value": "relatively insoluble"}, {"measurement": "Cave", "setting": "[2]; Day 5, 1500 mg SR bid", "value": "4126 ± 1995", "unit": "ng/mL"}, {"measurement": "Cmin", "setting": "[2]; Day 5, 1500 mg SR bid", "value": "2932 ± 1918", "unit": "ng/mL"}, {"measurement": "Degree of fluctuation", "setting": "[2]; Day 5, 1500 mg SR bid", "value": "0.664 ± 0.336"}, {"measurement": "Cave", "setting": "[2]; Day 5, 2000 mg SR bid", "value": "5705 ± 2153", "unit": "ng/mL"}, {"measurement": "Cmin", "setting": "[2]; Day 5, 2000 mg SR bid", "value": "4149 ± 2228", "unit": "ng/mL"}, {"measurement": "Degree of fluctuation", "setting": "[2]; Day 5, 2000 mg SR bid", "value": "0.591 ± 0.240"}, {"measurement": "Steady-state plasma levels attained by", "setting": "[2]; SR bid dosing, ranolazine free base", "value": "≤ 4", "unit": "days"}, {"measurement": "concentration at 96 h", "setting": "[2]; 1500 mg SR bid", "value": "3660 ± 1920", "unit": "ng/mL"}, {"measurement": "concentration at 108 h", "setting": "[2]; 1500 mg SR bid", "value": "2940 ± 1940", "unit": "ng/mL"}, {"measurement": "concentration at 96 h", "setting": "[2]; 2000 mg SR bid", "value": "5040 ± 1800", "unit": "ng/mL"}, {"measurement": "concentration at 108 h", "setting": "[2]; 2000 mg SR bid", "value": "4400 ± 2400", "unit": "ng/mL"}, {"measurement": "Effects vs. Pbo on rest or exercise blood pressure or heart rate", "setting": "[3]", "value": "no clinically meaningful effects"}, {"measurement": "Exercise duration times in comparison to the placebo", "setting": "[3]", "value": "improved"}, {"measurement": "Effect on heart rate", "setting": "dogs with heart failure; post- vs pre-treatment", "value": "no significant effects"}, {"measurement": "Effect on mean aortic pressure", "setting": "dogs with heart failure; post- vs pre-treatment", "value": "no significant effects"}, {"measurement": "LV ejection fraction", "setting": "dogs with heart failure; post- vs pre-treatment", "value": "significant increase"}, {"measurement": "LV peak+dP/dt", "setting": "dogs with heart failure; post- vs pre-treatment", "value": "significant increase"}, {"measurement": "LV stroke volume", "setting": "dogs with heart failure; post- vs pre-treatment", "value": "significant increase"}, {"measurement": "LV peak−dP/dt (diastolic function)", "setting": "dogs with heart failure; data not shown", "value": "increase"}, {"measurement": "Average ranolazine concentration during the final 10 minutes of treatment", "setting": "[4]; dogs with heart failure", "value": "0.33 ± 0.04", "unit": "µg/mL"}, {"measurement": "Time by which arterial ranolazine levels stabilized following the bolus injection", "setting": "[4]; iv bolus plus infusion, dogs", "value": "≤ 10", "unit": "min"}, {"measurement": "Average ranolazine concentration during the final 10 minutes of treatment", "setting": "[4]; normal dogs", "value": "0.3 ± 0.02", "unit": "µg/mL"}]}
{"smiles": "COc1ccccc1OC[C@H](O)CN1CCN(CC(=O)Nc2c(C)cccc2C)CC1", "note": "[(+)R ranolazine, (R)-(+)-N-(2,6-dimethylphenyl)-4-[2-hydroxy-3-(2 methoxyphenoxy)-propyl]-1-piperazineacetamide]", "values": [{"measurement": "Cave", "setting": "[2]; Day 5, 1500 mg SR bid", "value": "2144 ± 1115", "unit": "ng/mL"}, {"measurement": "Cmin", "setting": "[2]; Day 5, 1500 mg SR bid", "value": "1436 ± 1046", "unit": "ng/mL"}, {"measurement": "Degree of fluctuation", "setting": "[2]; Day 5, 1500 mg SR bid", "value": "0.833 ± 0.402"}, {"measurement": "concentration at 96 h", "setting": "[2]; 1500 mg SR bid", "value": "2010 ± 1140", "unit": "ng/mL"}, {"measurement": "concentration at 108 h", "setting": "[2]; 1500 mg SR bid", "value": "1450 ± 1070", "unit": "ng/mL"}, {"measurement": "Differences in pharmacokinetic parameters between enantiomers", "setting": "[2]", "value": "no differences"}]}
{"smiles": "COc1ccccc1OC[C@@H](O)CN1CCN(CC(=O)Nc2c(C)cccc2C)CC1", "note": "[(−)S ranolazine, (S)-(−)-N-(2,6-dimethylphenyl)-4-[2hydroxy-3-(2-methoxyphenoxy)-propyl]-1-piperazineacetamide]", "values": [{"measurement": "Cave", "setting": "[2]; Day 5, 1500 mg SR bid", "value": "2201 ± 1237", "unit": "ng/mL"}, {"measurement": "Cmin", "setting": "[2]; Day 5, 1500 mg SR bid", "value": "1514 ± 1201", "unit": "ng/mL"}, {"measurement": "Degree of fluctuation", "setting": "[2]; Day 5, 1500 mg SR bid", "value": "0.824 ± 0.443"}, {"measurement": "concentration at 96 h", "setting": "[2]; 1500 mg SR bid", "value": "2400 ± 1200", "unit": "ng/mL"}, {"measurement": "concentration at 108 h", "setting": "[2]; 1500 mg SR bid", "value": "1540 ± 1260", "unit": "ng/mL"}, {"measurement": "Differences in pharmacokinetic parameters between enantiomers", "setting": "[2]", "value": "no differences"}]}
